This note sets out measurements from patent US11912645B2, “Lipopeptide compounds for the treatment of pain disorders” (INSERM (Institut National de la Santé et de la Recherche …, priority 2017, dated 2024).

Test [1] has as its system capsaicin-induced visceral hypersensitivity. Put plainly: Capsaicin-induced visceral hypersensitivity, visceromotor response to colorectal distension. It counts as in vivo, mouse. As for the experimental part: FIG. 6: C12-Asn-GABA inhibits capsaicin-induced visceral hypersensitivity without altering Intestinal contraction. Mice received intracolonic administration of C12-Asn-GABA (10 μM; black symbols) or vehicle (40% ethanol; white symbols) and 30 minutes or 4 hours later colon (A) and blood (B) were harvested in order to quantify C12-Asn-GABA by LC-MS/MS. Data are expressed as mean±SEM, n=8 mice per group. […] Mice received intracolonic administration of C12-Asn-GABA (10 μM; black symbols) or vehicle (40% ethanol; white symbols) and 30 minutes or 4 hours later an intracolonic administration of capsaicin (100 μg/mouse; square) or its vehicle (40% ethanol; circle). Fifteen minutes after capsaicin or vehicle treatment, visceromotor response (VMR) to increasing pressures of colorectal distension was performed. Data are expressed as mean±SEM, n=7-8 mice per group. […] Ex vivo measurement of duodenal mechanical contraction frequency (B) and amplitude (C) in response to Krebs-Ringer solution (control; white bar), to DMSO 0.2% (vehicle; gray bar) or to C12-Asn-GABA (10 μM; black bar). Data are expressed as mean±SEM, n=5-6 per group. Statistical analysis was performed using Kruskal-Wallis analysis of variance and subsequent Dunn's post hoc test.
FIG. 8: Trimebutine maleate has no effect on capsaicin-induced visceral hypersensitivity. Mice received an oral treatment with vehicle (PEG200, white circle) or with trimebutine maleate (25 mg/kg, black circle) and 4 hours later an intracolonic administration of capsaicin (100 μg/mouse; black and white circle). Fifteen minutes after capsaicin, visceromotor response (VMR) to increasing pressures of colorectal distension was performed. Data are expressed as mean±SEM, n=7-8 mice per group. […]
In a first set of experiment, we assessed the ability of the C12-Asn-GABA to cross the epithelial barrier, in vivo. […] The impact of C12-Asn-GABA on visceral hypersensitivity was assessed by measuring the visceromotor responses (VMR) to colorectal distension (CRD). […]

Test [2] deals with DSS-induced visceral hypersensitivity. Put plainly: DSS-induced colitis visceral hypersensitivity, visceromotor response to colorectal distension. It counts as in vivo, mouse. The conditions noted are these: DSS 3% 5 days; 100 μL intracolonic 10 μM at day 5; CRD 15-60 mm Hg. As for the experimental part:
FIG. 9: C12-Asn-GABA Inhibits DSS-induced visceral hypersensitivity. Mice received DSS 3% in their drinking water for 5 days to induce colitis. At day 5, mice were intracolonically administrated with C12-Asn-GABA (10 μM; black circles) or vehicle (40% ethanol; white circles). Thirty minutes after intracolonic administration, visceromotor response (VMR) to increasing pressures of colorectal distension was performed. Data are expressed as mean±SEM, n=5 mice per group.
The analgesic properties of the C12-Asn-GABA was assessed in a mouse colitis model. Dextran sulfate sodium (DSS) at 3% during 5 days was added in the drinking water in order to induce colitis.

Test [3] has as its system mouse sensory neurons activated by capsaicin. Put plainly: Calcium flux in sensory neurons activated by capsaicin (TRPV1 agonist). It counts as cell-based. The conditions noted are these: capsaicin 125 nM; pretreatment with increasing amounts of compound. As to the method: FIG. 4: C12-Asn-GABA inhibits neuronal activation via the GABA B receptor. Amplitude of intracellular calcium mobilization (ΔF/F; right panel) in mouse sensory neurons and percentage of responding neurons (left panel) pretreated with increasing amounts of C12-Asn-GABA (black circle) or vehicle (HBSS; white circle) and treated with capsaicin (125 nM; A) or a mix of G protein coupled receptor agonists (histamine, serotonin and bradykinin 10 μM each; B). Data are represented as mean±SEM; n=4 independent experiments of 3 wells per condition and 30-80 neurons per well. […] Percentage of responding neurons pretreated with increasing amounts of saclofen (black circle) or vehicle (HBSS; white circle) and treated with C12-Asn-GABA (10 μM) and capsaicin (125 nM; C) or a mix of G protein coupled receptor agonist (histamine, serotonin and bradykinin 10 μM each; D). Data are represented as mean±SEM; n=4 independent experiments of 3 wells per condition and 30-80 neurons per well.
FIG. 7: C14-Asn-GABA inhibits neuronal activation by capsaicin. Amplitude of intracellular calcium mobilization (F/F; A) in mouse sensory neurons and percentage of responding neurons (B) pretreated with 10 μM of C14-Asn-GABA (black bar) or vehicle (HBSS; white bar) and treated with capsaicin (125 nM). Data are represented as mean±SEM; n=3 independent experiments of 3 wells per condition and 35-82 neurons per well.
Male C57B16 mice (6-8 weeks) were used to produce primary cultures of dorsal root ganglia (DRG) sensory neurons for calcium flux experiments, and to perform studies of colorectal distention and intestinal isotonic contraction. All procedures were approved by Institutional Animal Care Committees (CEEA 122).
To determine whether C12-Asn-GABA or C12-Asn-BABA is capable of signaling to sensory nerves, calcium mobilization studies were performed on primary cultures of mouse dorsal root ganglia (DRG) neurons. […]
(In general: Calcium assays in cells follow changes in intracellular calcium, usually with a dye or a luminescent sensor.)

`CCCCCCCCCCCC(=O)NC(CC(N)=O)C(=O)NCCCC(=O)O` (stereo not shown) [C12-Asn-GABA, C11 C(O)-Asn-gamma-aminobutyric acid]: the “capsaicin-evoked increase in VMR to CRD” value in test [1] (100 μL intracolonic 10 μM pretreatment, capsaicin 100 μg/animal, CRD 15-60 mm Hg) is “significantly prevented for all distension pressures”. Also, the “visceral sensitivity in response to CRD in the absence of capsaicin” value in test [1] (intracolonic 10 μM, no capsaicin) was “did not modify visceral sensitivity”. In test [2], the “DSS-induced increase in VMR to CRD” value is given as “significantly decreased for all distension pressures”. In test [3], the “calcium flux increase induced by capsaicin (% responding neurons, amplitude ΔF/F)” value is listed as “prevented by C12-Asn-GABA pretreatment in a dose-dependent manner”.
